From US4879278A, “Isolation and structural elucidation of the cytostatic linear depsipeptide dolastatin 15” (priority 1989, dated 1989)
≈ marks a conversion by molar mass, not a printed value. Read-outs that look alike come from different tables or passages of the source. Non-standard residues stand in square brackets, D forms with d. Residues, ends and D or L forms follow the SMILES beside them. *: point of attachment. X3 = COC1=CC(=O)N(C(=O)[C@@H](O*)C(C)C)[C@H]1Cc1ccccc1; NMe2Val = CC(C)[C@@H](C(=O)*)N(C)C; NMeV = CN[C@H](C(=O)O)C(C)C

Legend:
[1] = test system: P388 lymphocytic leukemia cell line; assay: P388 in vitro cell line growth inhibition; type: cell-based, murine
Protocol: Because of the dolastatin's potency, the sea hare seems to require only vanishingly small quantities (about 1 mg each from 100 kg), making isolation and structural elucidation of these peptides exceptionally challenging. Later another substance was isolated and determined to be a unique linear pentapeptide and was denominated "dolastatin 10". […] The PS System is an excellent predictor of activity against various types of human neoplasms (See: Vendetti et al, Lloydia, 30, 332 et seq (1967) and references cited therein.)

[2] = test system: P388 lymphocytic leukemia cell line; settings: PS leukemia; cited from earlier work

COC1=CC(=O)N(C(=O)[C@@H](OC(=O)[C@@H]2CCCN2C(=O)[C@@H]2CCCN2C(=O)[C@H](C(C)C)N(C)C(=O)[C@@H](NC(=O)[C@H](C(C)C)N(C)C)C(C)C)C(C)C)[C@H]1Cc1ccccc1 [Dolastatin 15] (NMe2Val-V[NMeV]PP-X3)
ED50 [1]: 0.0024 mg/L (≈ 0.00287 µM)

CC[C@H](C)[C@@H]([C@@H](CC(=O)N1CCC[C@H]1[C@H](OC)[C@@H](C)C(=O)N[C@@H](Cc1ccccc1)c1nccs1)OC)N(C)C(=O)[C@@H](NC(=O)[C@H](C(C)C)N(C)C)C(C)C [dolastatin 10]
ED50 [2]: 46 mg/L (≈ 58.6 µM)
